Results: patent publication US6486381B1, “Genetically engineered mice containing alterations in the genes encoding retinoic acid receptor proteins” (Institut National de la Sante et de la Recherche Medicale, priority 1993, dated 2002)

Key:
Format in all cases: in vivo, mouse
[1] = tested on: wild type, RARγ+/− and RARγ−/− fetuses; test: RA-induced skeletal malformations in wild type, RARγ+/− and RARγ−/− offspring
Method: For whole mount skeletal analysis, fetuses were collected at day 18.5 p.c. and stored at −20° C. Skeletons were prepared as previously described (Lufkin et al., Nature 359:835-841 (1992)). For histological analysis, fetuses were skinned and then fixed in Bouin's fluid. Paraffin sections, 7 μm thick, were stained with Groat's hematoxylin and Mallory's trichrome. Organs were fixed in 10% formalin, and histological sections, 5 μm thick, were stained with hematoxylin and eosin. RARγ^+/− heterozygote animals were mated overnight and the presence of a vaginal plug at noon the next day considered as day 0.5 p.c. At various times, pregnant females received a single dose of RA dissolved in sunflower seed oil at a final delivery of 100 mg RA per kg animal. […] To determine if any of these malformations could be mediated by RARγ, pregnant dams from heterozygote crosses were treated with RA at day 8.5 or 9.0 p.c., and we examined day 18.5 p.c. fetuses for skeletal malformations. […] Comparison of RA-induced skeletal malformations in wild type, RARγ^+/− and RARγ^−/− offspring. […] Skeletons were prepared, and malformations scored under a dissecting microscope. Where possible, fetuses from the same litter were compared.

[2] = tested on: RARγ2−/− animals; test: RA-induced skeletal malformations in RARγ2−/− animals; conditions: RARγ2−/− animals versus control littermates, identical conditions
[3] = tested on: wild type and RARβ2 null embryos; test: RA-induced hindbrain and forebrain alterations in wild type and RARβ2 null embryos (in situ hybridization); conditions: 25 mg/kg at 7.25 dpc
Method: For generation of hindbrain malformations timed mating experiments were performed and all-trans RA (Sigma) (25 mg/kg body weight) was administered to the mother by oral gavage at 7.25 dpc. Embryos were collected at 9.0 dpc, yolk sacs were taken for genotyping and embryos were fixed in 4% paraformaldehyde and embedded in paraffin for in situ hybridization on sections. For each embryo, three sets of alternate sections were hybridized to Hoxb-1, Krox-20 and Hoxa-3 probes. These probes have been described previously (Gaunt et al., Development 104 suppl.:71-82 (1988); Wilkinson et al., Nature 337:461-464 (1989); Hunt et al., Nature 353:861-864 (1991)). […] A separate series of embryos was processed for whole-mount in situ hybridization with a digoxigenin-labelled Hoxb-1 riboprobe. Both in situ hybridization procedures were performed as described in Décimo et al. (“In situ Hybridization to Cellular RNA,” in Gene Probes: A Practical Approach, Vol. 2, Hames et al., eds., Oxford University Press, Oxford, England, in press). For induction of limb malformations, all-trans RA was administered at 11.5 dpc (80 mg/kg) and fetuses were collected at 18.5 dpc and analyzed for skeletal malformations. For investigating induction of RARβ2 promoter activity in RARβ2 mutants, 25 mg/kg RA was administered at days 10.5 and 11.5 pc, then embryos were collected and stained for LacZ activity after 4 hours. For whole-mount skeletal analysis, fetuses were collected at 18.5 dpc by ceasarean section and skeletons were prepared as described (Lufkin et al., Nature 359:835-841 (1992)). Histological analysis was as in Lohnes et al. (Cell 73:643-658 (1993)) and lacZ staining as in Mendelsohn et al. (Development 113:723-734 (1991)).
RARβ2+/− intercrosses were set up, and pregnant females were given 25 mg/kg all-trans RA at 7.25 dpc, a dose which is known to produce rhombomeric alterations. […] Hoxb-1 expression was analyzed by whole-mount in situ hybridization.

[4] = tested on: wild type and RARβ2 null fetuses; test: RA-induced limb malformations in wild type and RARβ2 null fetuses; conditions: 80 mg/kg in utero at 11.5 dpc, fetuses at 18.5 dpc
Method: For generation of hindbrain malformations timed mating experiments were performed and all-trans RA (Sigma) (25 mg/kg body weight) was administered to the mother by oral gavage at 7.25 dpc. Embryos were collected at 9.0 dpc, yolk sacs were taken for genotyping and embryos were fixed in 4% paraformaldehyde and embedded in paraffin for in situ hybridization on sections. For each embryo, three sets of alternate sections were hybridized to Hoxb-1, Krox-20 and Hoxa-3 probes. These probes have been described previously (Gaunt et al., Development 104 suppl.:71-82 (1988); Wilkinson et al., Nature 337:461-464 (1989); Hunt et al., Nature 353:861-864 (1991)). […] A separate series of embryos was processed for whole-mount in situ hybridization with a digoxigenin-labelled Hoxb-1 riboprobe. Both in situ hybridization procedures were performed as described in Décimo et al. (“In situ Hybridization to Cellular RNA,” in Gene Probes: A Practical Approach, Vol. 2, Hames et al., eds., Oxford University Press, Oxford, England, in press). For induction of limb malformations, all-trans RA was administered at 11.5 dpc (80 mg/kg) and fetuses were collected at 18.5 dpc and analyzed for skeletal malformations. For investigating induction of RARβ2 promoter activity in RARβ2 mutants, 25 mg/kg RA was administered at days 10.5 and 11.5 pc, then embryos were collected and stained for LacZ activity after 4 hours. […]

[5] = tested on: RARα1 null homozygotes; test: RA-induced malformations in RARα1 null homozygotes; conditions: RA at days 8.5-9.0 p.c.
[6] = RA 100 mg/kg single dose to dam at day 8.5 p.c., RARγ +/+ fetuses, day 18.5 p.c.
[7] = RA 100 mg/kg single dose to dam at day 8.5 p.c., RARγ +/− fetuses, day 18.5 p.c.
[8] = RA 100 mg/kg single dose to dam at day 8.5 p.c., RARγ −/− fetuses, day 18.5 p.c.
[9] = RA 100 mg/kg single dose to dam at day 9.0 p.c., +/−, fetuses day 18.5 p.c.
[10] = RA 100 mg/kg single dose to dam at day 9.0 p.c., RARγ +/− fetuses, day 18.5 p.c.
[11] = RA 100 mg/kg single dose to dam at day 9.0 p.c., RARγ −/− fetuses, day 18.5 p.c.

## CC1=C(/C=C/C(C)=C/C=C/C(C)=C/C(=O)O)C(C)(C)CCC1 [RA, retinoic acid]
[1]; [6]
  Caudal truncations: 11 (100%) fetuses (%)
  Craniofacial malformations: 11 (100%) fetuses (%)
  Degenerate ribs: 10 (91%) fetuses (%)
  Homeotic transformations: 8 vertebrosternal ribs (T8 → T7): 7 (64%) fetuses (%)
  Homeotic transformations: 14 or 15 ribs (L → T): 6 (54%) fetuses (%)
[1]; [7]
  Caudal truncations: 13 (81%) fetuses (%)
  Craniofacial malformations: 16 (100%) fetuses (%)
  Degenerate ribs: 6 (38%) fetuses (%)
  Homeotic transformations: 8 vertebrosternal ribs (T8 → T7): 8 (50%) fetuses (%)
  Homeotic transformations: 14 or 15 ribs (L → T): 14 (87%) fetuses (%)
  Malformed lumbar/sacral vertebrae: 3 (19%) fetuses (%)
[1]; [8]
  Caudal truncations: 0 (0%) fetuses (%)
  Craniofacial malformations: 10 (100%) fetuses (%)
  Degenerate ribs: 0 (0%) fetuses (%)
  Homeotic transformations: 8 vertebrosternal ribs (T8 → T7): 6 (50%) fetuses (%)
  Homeotic transformations: 14 or 15 ribs (L → T): 7 (70%) fetuses (%)
  Homeotic transformations: Number of lumbar vertebrae: 5: 1 (10%) fetuses (%)
  Homeotic transformations: Number of lumbar vertebrae: 6: 9 (90%) fetuses (%)
  Homeotic transformations: Number of lumbar vertebrae: 7: 0 (0%) fetuses (%)
  Malformed lumbar/sacral vertebrae: 0 (0%) fetuses (%)
[1]; [9]
  Caudal truncations: 13 (100%) fetuses (%)
  Craniofacial malformations: 13 (100%) fetuses (%)
  Degenerate ribs: 0 (0%) fetuses (%)
  Homeotic transformations: 8 vertebrosternal ribs (T8 → T7): 7 (54%) fetuses (%)
  Homeotic transformations: 14 or 15 ribs (L → T): 7 (54%) fetuses (%)
[1]; [10]
  Caudal truncations: 14 (58%) fetuses (%)
  Craniofacial malformations: 24 (100%) fetuses (%)
  Degenerate ribs: 0 (0%) fetuses (%)
  Homeotic transformations: 8 vertebrosternal ribs (T8 → T7): 9 (38%) fetuses (%)
  Homeotic transformations: 14 or 15 ribs (L → T): 8 (33%) fetuses (%)
  Malformed lumbar/sacral vertebrae: 10 (42%) fetuses (%)
[1]; [11]
  Caudal truncations: 0 (0%) fetuses (%)
  Craniofacial malformations: 18 (100%) fetuses (%)
  Degenerate ribs: 0 (0%) fetuses (%)
  Homeotic transformations: 8 vertebrosternal ribs (T8 → T7): 11 (61%) fetuses (%)
  Homeotic transformations: 14 or 15 ribs (L → T): 11 (61%) fetuses (%)
  Homeotic transformations: Number of lumbar vertebrae: 5: 1 (7%) fetuses (%)
  Homeotic transformations: Number of lumbar vertebrae: 6: 15 (83%) fetuses (%)
  Homeotic transformations: Number of lumbar vertebrae: 7: 3 (16%) fetuses (%)
  Malformed lumbar/sacral vertebrae: 0 (0%) fetuses (%)
[1]; RA-treated RARγ null homozygotes
  lumbar to thoracic, sacral to lumbar and lumbar to sacral vertebral transformations: also occurred
[1]; RARγ heterozygotes, RA at day 8.5 p.c.
  RA-induced truncations: partially resistant
[1]; RARγ+/− animals, RA-treated
  lumbo-sacral vertebral malformations, including fusion of the neural arches and disorganized vertebral centres: always exhibited lumbo-sacral vertebral malformations
[1]; RARγ−/− embryos exposed to RA at day 8.5 p.c.
  spina bifida, truncation of the axial skeleton in the post-thoracic region, degenerate or fused ribs, disorganized vertebral centres or malformed neural arches: none
[1]; RARγ−/− littermates, RA at day 9.0 p.c.
  truncations and associated defects: never observed
[1]; WT embryos, RA at day 9.0 p.c. compared to day 8.5 p.c.
  truncations and associated defects: progressively more posterior truncations and associated defects
[1]; WT fetuses exposed to RA at day 8.5 p.c.
  spina bifida, truncation of the axial skeleton in the post-thoracic region, degenerate or fused ribs, disorganized vertebral centres or malformed neural arches: All WT fetuses exhibited these malformations
[2]
  type and frequency of RA-induced malformations: same type and frequency of RA-induced malformations as control littermates
[3]; embryos collected at 9.0 dpc
  Hoxa-3 expression pattern: No significant alteration
[3]; observed at 9.0-9.5 dpc, wild-type and RARβ2 null embryos
  forebrain truncation: Severe truncations of the forebrain
[3]; RA-treated embryos
  Krox-20 transcripts (in situ hybridization): not detected in the putative R3
[3]; wild type and RARβ2 null mutants
  Hoxb-1 expression (in situ hybridization): rostral expansion of the Hoxb-1 transcript domain
[4]
  nature or extent of the limb malformations, wild type versus RARβ2 null fetuses: no apparent differences
[4]; wild type and RARβ2 null, compared to untreated
  limb malformations (truncated long bones, missing digits): severely malformed limbs
[5]
  resistance to RA-induced malformations (lumbosacral truncations): not observed
